Test results taken from patent US8268854B2, “Aza-beta-carbolines and methods of using same” (The UWM Research Foundation, Inc., priority 2008, dated 2012).
Structures can show the parent of a compound that is named as a salt.

Tests used:
Assay in all cases: PDSP primary radioligand binding assay
SERT transporter = biological target: T1, SERT transporter (Homo sapiens, UniProt P31645); conditions: compound 10 μM, n=4, read-out: mean percentage inhibition, SERT transporter
T1 construct: expressed in transfected cells
T1 sequence (P31645 whole entry): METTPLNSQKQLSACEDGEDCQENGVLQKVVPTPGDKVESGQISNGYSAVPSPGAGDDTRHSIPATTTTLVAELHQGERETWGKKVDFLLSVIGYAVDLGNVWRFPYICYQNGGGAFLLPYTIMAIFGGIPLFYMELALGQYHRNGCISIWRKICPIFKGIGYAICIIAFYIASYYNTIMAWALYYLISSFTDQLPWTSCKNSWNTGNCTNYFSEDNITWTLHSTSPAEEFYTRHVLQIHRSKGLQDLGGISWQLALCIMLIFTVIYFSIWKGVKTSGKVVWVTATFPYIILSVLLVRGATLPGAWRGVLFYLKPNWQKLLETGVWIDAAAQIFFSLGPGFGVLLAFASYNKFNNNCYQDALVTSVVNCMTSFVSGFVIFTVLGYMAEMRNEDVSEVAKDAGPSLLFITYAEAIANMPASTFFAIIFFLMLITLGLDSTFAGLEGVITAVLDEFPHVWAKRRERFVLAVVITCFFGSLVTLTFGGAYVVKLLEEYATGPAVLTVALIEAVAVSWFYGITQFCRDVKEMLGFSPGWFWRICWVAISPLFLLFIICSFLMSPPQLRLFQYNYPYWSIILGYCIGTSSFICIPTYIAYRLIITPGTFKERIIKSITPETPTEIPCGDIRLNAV
Description: (§1) Primary and secondary radioligand binding assays are performed. In general, the primary assay is run at very high ligand (compound) concentration as a broad screen to determine whether a compound binds to a particular receptor. If greater than 50% inhibition at 10 μM (high concentration of compound) at a particular receptor is determined, a secondary assay is performed on that receptor. Data from the secondary assay is the binding affinity (Ki value).
(§2) A solution of the compound to be tested is prepared as a 1 mg/ml stock in Standard Binding Buffer or dimethyl sulfoxide (DMSO) according to its solubility. A similar stock of a reference compound (positive control) is also prepared.
(§3) Radioligand (radioligands are presented in Table 39) is diluted to five times the assay concentration (assay concentrations are presented in Table 39) in Standard Binding Buffer. Typically, the assay concentration of radioligand is a value between one half the KD and the KD of a particular radioligand at its target. Aliquots (50 μL) of radioligand are dispensed into the wells of a 96-well plate (see FIG. 11) containing 100 μL of Standard Binding Buffer (Table 40). Then, duplicate 50 μL aliquots of the test and reference compound dilutions are added (see FIG. 11). According to FIG. 11, increasing concentrations (from left to right) of reference or test compound (diluted in buffer) are added (50 μL aliquots, in duplicate) from 5× stock solutions to wells containing 50 μL of 5× radioligand (fixed concentration, prepared in buffer) and 100 μL of buffer. Finally, 50 μL of receptor-containing membrane homogenate (5× suspension in buffer) are added to achieve a final assay volume of 250 μL. Final concentrations of reference or test compound are listed above the columns in FIG. 11.
(§4) Finally, crude membrane fractions of cells expressing recombinant target (prepared from 10 cm plates by harvesting phosphate buffered saline (PBS)-rinsed monolayers, resuspending and lysing in chilled, hypotonic 50 mM Tris-HCl, pH 7.4, centrifuging at 20,000×g, decanting the supernatant and storing at −80° C.; typically, one 10 cm plate provides sufficient material for 24 wells) are resuspended in 3 mL of chilled Standard Binding Buffer and homogenized by several passages through a 26 gauge needle, and then 50 μL are dispensed into each well.
(§5) The 250 μL reactions are incubated at room temperature and shielded from light (to prevent photolysis of light-sensitive ligands) for 1.5 hours, then harvested by rapid filtration onto Whatman GF/B glass fiber filters pre-soaked with 0.3% polyethyleneimine using a 96-well Brandel harvester. Four rapid 500 μL washes are performed with chilled Standard Binding Buffer to reduce non-specific binding. Filters are placed in 6 mL scintillation tubes and allowed to dry overnight. The next day, 4 mL of EcoScint scintillation cocktail (National Diagnostics) are added to each tube. The tubes are capped, labeled, and counted by liquid scintillation counting. For higher throughput assays, bound radioactivity is harvested onto 0.3% polyethyleneimine-treated, 96-well filter mats using a 96-well Filtermate harvester. The filter mats are dried, then scintillant is melted onto the filters, and the radioactivity retained on the filters is counted in a Microbeta scintillation counter.
(§6) Raw data (dpm) representing total radioligand binding (i.e., specific+non-specific binding) are plotted as a function of the logarithm of the molar concentration of the competitor (i.e., test or reference compound). […]

Serotonin receptor 5ht1b = biological target: T2, Serotonin receptor 5ht1b (Homo sapiens, UniProt P28222); conditions: compound 10 μM
T2 construct: expressed in transfected cells
T2 sequence (P28222 whole entry): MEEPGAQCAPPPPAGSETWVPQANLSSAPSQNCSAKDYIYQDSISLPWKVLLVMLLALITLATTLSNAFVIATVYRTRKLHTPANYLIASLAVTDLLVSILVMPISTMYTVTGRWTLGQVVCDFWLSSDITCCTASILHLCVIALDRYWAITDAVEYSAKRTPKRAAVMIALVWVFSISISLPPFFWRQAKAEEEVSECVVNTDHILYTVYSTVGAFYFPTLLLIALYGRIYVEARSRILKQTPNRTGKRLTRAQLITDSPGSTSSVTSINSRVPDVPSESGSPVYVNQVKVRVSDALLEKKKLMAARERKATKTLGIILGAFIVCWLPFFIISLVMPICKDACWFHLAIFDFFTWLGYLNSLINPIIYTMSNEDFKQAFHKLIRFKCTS
Description: as §1, §2, §3, §4, §5, §6

NET transporter = biological target: T3, NET transporter (Homo sapiens, UniProt P23975); conditions: compound 10 μM
T3 construct: expressed in transfected cells
T3 sequence (P23975 whole entry): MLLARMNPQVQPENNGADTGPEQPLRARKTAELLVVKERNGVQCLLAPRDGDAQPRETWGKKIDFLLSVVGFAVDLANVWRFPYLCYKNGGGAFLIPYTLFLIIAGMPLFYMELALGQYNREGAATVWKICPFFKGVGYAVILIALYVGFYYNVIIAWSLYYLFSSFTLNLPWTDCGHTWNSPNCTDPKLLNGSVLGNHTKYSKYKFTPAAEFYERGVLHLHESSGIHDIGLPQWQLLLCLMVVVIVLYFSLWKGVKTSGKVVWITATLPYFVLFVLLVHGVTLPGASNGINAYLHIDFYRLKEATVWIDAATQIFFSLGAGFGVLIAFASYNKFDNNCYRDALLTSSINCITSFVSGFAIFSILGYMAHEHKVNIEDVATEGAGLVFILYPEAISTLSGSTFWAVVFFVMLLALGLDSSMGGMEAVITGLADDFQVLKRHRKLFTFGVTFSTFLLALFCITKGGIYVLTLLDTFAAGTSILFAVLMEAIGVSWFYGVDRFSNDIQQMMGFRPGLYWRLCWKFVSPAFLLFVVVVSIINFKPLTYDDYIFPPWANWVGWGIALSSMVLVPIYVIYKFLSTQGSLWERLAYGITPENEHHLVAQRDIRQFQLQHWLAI
Description: as §1, §2, §3, §4, §5, §6

Structure (SMILES) | inhibition at 10 µM (SERT transporter) | mean percentage inhibition, Serotonin receptor 5ht1b (Serotonin receptor 5ht1b; n=4, hydrochloride, 10 µM) | inhibition at 10 µM (Serotonin receptor 5ht1b; n=4, read-out: mean percentage inhibition, Serotonin receptor 5ht1b) | mean percentage inhibition, NET transporter (NET transporter; n=4, hydrochloride, 10 µM) | inhibition at 10 µM (NET transporter; n=4, read-out: mean percentage inhibition, NET transporter)
CCCOc1cc2c(cn1)[nH]c1ccncc12 [Compound 2, 8-Propoxypyridino[4′,3′-5,4]pyrrolo[3,2-c]pyridine hydrochloride] | 22.1% | 47% | < 50% |  | 
CCCOc1cc2c(cn1)[nH]c1cnccc12 [Compound 4, 3-Propoxy pyridino[4′,3′-4,5]pyrrolo[2,3-c]pyridine hydrochloride] |  |  |  | 36.8% | < 50%
